Key:
Assay in all cases: biochemical
Settings in all cases: read-out: %Ctrl @ 1000nM
SRPK3 = SRPK3 (Homo sapiens, UniProt Q9UPE1)
[1] = biological target: ABL1(Q252H)-phosphorylated (Homo sapiens, UniProt P00519, Q252H)
DMPK = DMPK (Homo sapiens, UniProt Q09013)
ROCK1 = ROCK1 (Homo sapiens, UniProt Q13464)
FER = FER (Homo sapiens, UniProt P16591)
PAK7 = biological target: T1, PAK7 (Homo sapiens, UniProt Q9P286)
T1 construct: gene PAK5

TNIK = TNIK (Homo sapiens, UniProt Q9UKE5)
LCK = LCK (Homo sapiens, UniProt P06239)
LATS2 = LATS2 (Homo sapiens, UniProt Q9NRM7)
[2] = biological target: ABL1(T315I)-phosphorylated (Homo sapiens, UniProt P00519, T315I)
CLK3 = CLK3 (Homo sapiens, UniProt P49761)
[3] = biological target: EGFR(L747-E749del, A750P) (Homo sapiens, UniProt P00533, A750P/DEL747-749)
EGFR(L747-E749del, A750P), sequence (P00533 with tags, fused parts or gaps DEL747-749/A750P): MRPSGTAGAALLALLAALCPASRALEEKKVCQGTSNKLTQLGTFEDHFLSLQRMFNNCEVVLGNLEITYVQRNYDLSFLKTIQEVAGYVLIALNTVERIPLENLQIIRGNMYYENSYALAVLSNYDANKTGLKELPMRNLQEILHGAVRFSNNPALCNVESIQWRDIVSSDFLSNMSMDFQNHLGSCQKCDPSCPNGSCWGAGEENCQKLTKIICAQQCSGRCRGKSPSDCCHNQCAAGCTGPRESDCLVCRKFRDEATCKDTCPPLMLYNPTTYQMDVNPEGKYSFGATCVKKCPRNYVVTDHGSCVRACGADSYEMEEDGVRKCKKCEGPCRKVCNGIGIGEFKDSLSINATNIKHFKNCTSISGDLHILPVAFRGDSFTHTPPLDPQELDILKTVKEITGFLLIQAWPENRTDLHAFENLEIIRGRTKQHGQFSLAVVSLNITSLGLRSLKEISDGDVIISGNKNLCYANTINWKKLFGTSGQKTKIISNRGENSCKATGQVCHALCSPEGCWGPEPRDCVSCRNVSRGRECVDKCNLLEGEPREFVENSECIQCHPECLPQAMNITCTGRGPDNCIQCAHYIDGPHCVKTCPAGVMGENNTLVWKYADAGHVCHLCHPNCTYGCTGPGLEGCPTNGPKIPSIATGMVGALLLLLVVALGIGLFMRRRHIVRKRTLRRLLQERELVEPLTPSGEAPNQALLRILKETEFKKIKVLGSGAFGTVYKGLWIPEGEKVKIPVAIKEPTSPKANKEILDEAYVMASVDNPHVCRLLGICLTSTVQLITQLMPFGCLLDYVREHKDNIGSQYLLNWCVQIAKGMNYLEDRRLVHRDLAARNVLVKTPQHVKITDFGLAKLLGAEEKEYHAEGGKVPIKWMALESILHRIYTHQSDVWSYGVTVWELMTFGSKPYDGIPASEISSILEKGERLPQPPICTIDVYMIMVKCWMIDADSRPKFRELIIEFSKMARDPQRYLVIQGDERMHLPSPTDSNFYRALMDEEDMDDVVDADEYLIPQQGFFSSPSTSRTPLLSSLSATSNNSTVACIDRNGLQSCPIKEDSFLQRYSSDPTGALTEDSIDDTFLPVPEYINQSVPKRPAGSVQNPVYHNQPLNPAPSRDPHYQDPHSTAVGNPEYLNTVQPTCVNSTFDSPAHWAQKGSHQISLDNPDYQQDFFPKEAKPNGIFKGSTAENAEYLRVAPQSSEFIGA

NEK2 = NEK2 (Homo sapiens, UniProt P51955)
[4] = biological target: RPS6KA4(Kin.Dom.1-N-terminal) (Homo sapiens, UniProt O75676)
DAPK3 = DAPK3 (Homo sapiens, UniProt O43293)
TGFBR2 = TGFBR2 (Homo sapiens, UniProt P37173)
CDK9 = CDK9 (Homo sapiens, UniProt P50750)
MST4 = biological target: T2, MST4 (Homo sapiens, UniProt Q9P289)
T2 construct: gene STK26

MET(M1250T) = MET(M1250T) (Homo sapiens, UniProt P08581, M1250T)
HIPK4 = HIPK4 (Homo sapiens, UniProt Q8NE63)
CDC2L2 = biological target: T3, CDC2L2 (Homo sapiens, UniProt Q9UQ88)
T3 construct: gene CDK11A
T3 sequence (Q9UQ88 whole entry): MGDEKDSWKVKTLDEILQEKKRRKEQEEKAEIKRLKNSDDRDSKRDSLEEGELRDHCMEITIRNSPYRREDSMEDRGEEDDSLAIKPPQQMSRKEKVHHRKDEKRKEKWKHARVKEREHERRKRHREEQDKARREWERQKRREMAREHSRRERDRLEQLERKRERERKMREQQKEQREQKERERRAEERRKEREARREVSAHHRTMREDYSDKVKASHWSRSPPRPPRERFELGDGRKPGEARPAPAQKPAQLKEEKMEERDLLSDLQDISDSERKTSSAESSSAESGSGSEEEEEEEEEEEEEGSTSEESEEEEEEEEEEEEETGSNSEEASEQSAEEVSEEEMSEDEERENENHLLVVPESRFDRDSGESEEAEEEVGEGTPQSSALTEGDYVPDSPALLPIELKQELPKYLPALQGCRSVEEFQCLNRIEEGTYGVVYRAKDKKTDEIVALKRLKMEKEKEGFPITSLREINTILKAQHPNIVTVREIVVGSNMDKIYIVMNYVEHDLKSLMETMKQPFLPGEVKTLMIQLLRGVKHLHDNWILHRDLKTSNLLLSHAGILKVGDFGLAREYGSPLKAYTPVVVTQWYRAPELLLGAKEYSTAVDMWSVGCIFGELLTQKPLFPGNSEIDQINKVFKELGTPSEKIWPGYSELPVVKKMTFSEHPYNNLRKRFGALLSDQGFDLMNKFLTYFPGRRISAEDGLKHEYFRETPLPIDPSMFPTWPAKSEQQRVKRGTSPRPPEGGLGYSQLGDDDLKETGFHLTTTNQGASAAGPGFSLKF

GRK4 = GRK4 (Homo sapiens, UniProt P32298)
[5] = biological target: ABL1(H396P)-nonphosphorylated (Homo sapiens, UniProt P00519, H396P)
PAK3 = PAK3 (Homo sapiens, UniProt O75914)
SLK = SLK (Homo sapiens, UniProt Q9H2G2)
SLK, sequence (Q9H2G2 whole entry): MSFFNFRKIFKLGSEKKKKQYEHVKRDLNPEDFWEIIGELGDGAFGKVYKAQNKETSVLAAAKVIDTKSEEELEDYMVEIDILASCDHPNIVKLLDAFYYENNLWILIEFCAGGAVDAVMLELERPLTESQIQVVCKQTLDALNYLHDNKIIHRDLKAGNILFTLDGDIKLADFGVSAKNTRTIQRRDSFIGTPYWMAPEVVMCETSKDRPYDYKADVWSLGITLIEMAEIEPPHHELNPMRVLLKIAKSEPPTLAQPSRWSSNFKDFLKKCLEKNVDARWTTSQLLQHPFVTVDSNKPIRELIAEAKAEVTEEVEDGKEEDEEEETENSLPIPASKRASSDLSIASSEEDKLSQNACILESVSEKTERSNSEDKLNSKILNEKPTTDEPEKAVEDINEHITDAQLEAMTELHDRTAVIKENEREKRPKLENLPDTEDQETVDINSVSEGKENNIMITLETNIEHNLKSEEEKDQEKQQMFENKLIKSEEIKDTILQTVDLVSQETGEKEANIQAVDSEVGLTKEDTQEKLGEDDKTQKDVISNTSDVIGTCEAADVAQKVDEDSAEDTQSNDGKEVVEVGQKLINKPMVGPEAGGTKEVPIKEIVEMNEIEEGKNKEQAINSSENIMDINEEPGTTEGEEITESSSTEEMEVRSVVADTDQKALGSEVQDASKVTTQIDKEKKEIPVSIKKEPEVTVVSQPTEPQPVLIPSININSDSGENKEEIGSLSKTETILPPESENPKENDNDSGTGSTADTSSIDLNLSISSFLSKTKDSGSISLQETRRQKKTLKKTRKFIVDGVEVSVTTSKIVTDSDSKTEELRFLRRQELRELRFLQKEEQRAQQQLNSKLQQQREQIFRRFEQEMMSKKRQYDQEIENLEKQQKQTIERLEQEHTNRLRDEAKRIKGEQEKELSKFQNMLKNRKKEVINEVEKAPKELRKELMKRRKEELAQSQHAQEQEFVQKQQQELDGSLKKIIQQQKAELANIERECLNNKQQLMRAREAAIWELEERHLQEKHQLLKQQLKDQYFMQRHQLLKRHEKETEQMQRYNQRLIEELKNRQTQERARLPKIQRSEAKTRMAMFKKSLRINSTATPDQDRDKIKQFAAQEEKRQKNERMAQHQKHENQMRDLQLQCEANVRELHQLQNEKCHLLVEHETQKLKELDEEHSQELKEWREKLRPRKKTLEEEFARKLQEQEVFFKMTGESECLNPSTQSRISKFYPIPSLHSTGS

EPHB6 = EPHB6 (Homo sapiens, UniProt O15197)
EPHA5 = EPHA5 (Homo sapiens, UniProt P54756)
MAP3K15 = MAP3K15 (Homo sapiens, UniProt Q6ZN16)
MAP3K3 = MAP3K3 (Homo sapiens, UniProt Q99759)
IKK-beta = biological target: T4, IKK-beta (Homo sapiens, UniProt O14920)
T4 construct: gene IKBKB

CAMK1G = CAMK1G (Homo sapiens, UniProt Q96NX5)
PIP5K2B = biological target: T5, PIP5K2B (Homo sapiens, UniProt P78356)
T5 construct: gene PIP4K2B

OSR1 = biological target: T6, OSR1 (Homo sapiens, UniProt O95747)
T6 construct: gene OXSR1

BLK = BLK (Homo sapiens, UniProt P51451)
BLK, sequence (P51451 whole entry): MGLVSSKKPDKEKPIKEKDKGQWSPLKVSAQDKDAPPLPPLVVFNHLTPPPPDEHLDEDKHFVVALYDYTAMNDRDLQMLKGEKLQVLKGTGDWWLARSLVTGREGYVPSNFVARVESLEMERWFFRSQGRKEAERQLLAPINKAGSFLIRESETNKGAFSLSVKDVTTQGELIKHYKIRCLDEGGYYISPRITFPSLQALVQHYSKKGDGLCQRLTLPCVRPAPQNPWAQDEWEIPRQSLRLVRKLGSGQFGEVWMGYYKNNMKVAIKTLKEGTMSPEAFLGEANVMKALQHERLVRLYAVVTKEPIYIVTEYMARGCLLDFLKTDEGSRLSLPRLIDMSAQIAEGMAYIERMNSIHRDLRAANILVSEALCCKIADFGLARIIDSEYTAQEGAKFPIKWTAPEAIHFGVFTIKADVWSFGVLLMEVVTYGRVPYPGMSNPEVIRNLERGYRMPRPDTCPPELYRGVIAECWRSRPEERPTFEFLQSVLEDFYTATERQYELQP

EPHB1 = EPHB1 (Homo sapiens, UniProt P54762)

ROCK1, sequence (Q13464 whole entry): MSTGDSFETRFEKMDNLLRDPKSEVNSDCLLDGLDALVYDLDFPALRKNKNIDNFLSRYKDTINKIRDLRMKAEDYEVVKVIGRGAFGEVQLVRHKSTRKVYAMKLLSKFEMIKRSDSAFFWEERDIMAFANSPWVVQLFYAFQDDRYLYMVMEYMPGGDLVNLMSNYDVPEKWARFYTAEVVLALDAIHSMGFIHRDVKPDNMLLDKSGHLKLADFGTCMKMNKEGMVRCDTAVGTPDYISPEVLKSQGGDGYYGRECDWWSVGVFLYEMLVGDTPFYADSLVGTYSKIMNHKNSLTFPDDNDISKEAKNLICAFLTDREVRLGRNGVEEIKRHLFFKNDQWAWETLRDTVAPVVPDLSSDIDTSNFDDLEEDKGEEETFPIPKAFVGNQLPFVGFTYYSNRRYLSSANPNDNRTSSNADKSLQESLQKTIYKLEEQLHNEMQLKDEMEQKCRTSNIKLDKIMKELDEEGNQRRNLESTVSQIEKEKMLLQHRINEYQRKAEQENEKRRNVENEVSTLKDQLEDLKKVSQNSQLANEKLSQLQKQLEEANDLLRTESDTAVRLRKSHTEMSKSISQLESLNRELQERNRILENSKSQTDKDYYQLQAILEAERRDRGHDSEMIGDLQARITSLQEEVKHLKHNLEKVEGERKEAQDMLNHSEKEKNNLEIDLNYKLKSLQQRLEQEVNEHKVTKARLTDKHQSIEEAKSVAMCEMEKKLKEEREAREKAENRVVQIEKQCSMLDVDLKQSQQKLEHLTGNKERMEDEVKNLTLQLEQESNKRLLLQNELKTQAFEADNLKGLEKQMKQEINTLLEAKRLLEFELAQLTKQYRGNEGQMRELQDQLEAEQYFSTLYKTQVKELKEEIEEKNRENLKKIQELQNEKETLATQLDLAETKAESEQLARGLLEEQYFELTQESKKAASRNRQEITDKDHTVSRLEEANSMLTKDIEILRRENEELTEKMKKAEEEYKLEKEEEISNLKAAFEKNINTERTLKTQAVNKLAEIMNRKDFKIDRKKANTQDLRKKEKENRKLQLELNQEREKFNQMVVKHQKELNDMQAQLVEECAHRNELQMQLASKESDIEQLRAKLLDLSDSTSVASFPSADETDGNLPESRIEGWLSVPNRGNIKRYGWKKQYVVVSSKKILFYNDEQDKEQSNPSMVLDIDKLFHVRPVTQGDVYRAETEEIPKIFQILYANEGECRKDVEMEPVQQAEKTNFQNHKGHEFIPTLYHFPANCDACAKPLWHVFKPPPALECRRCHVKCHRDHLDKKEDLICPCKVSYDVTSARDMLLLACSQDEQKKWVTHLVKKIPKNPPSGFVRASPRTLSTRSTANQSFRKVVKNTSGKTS

remaining activity at 1 µM (SRPK3): 93%
remaining activity at 1 µM [1]: 95%
remaining activity at 1 µM (DMPK): 100%
remaining activity at 1 µM (ROCK1): 100%
remaining activity at 1 µM (FER): 92%
remaining activity at 1 µM (PAK7): 98%
remaining activity at 1 µM (TNIK): 86%
remaining activity at 1 µM (LCK): 74%
remaining activity at 1 µM (LATS2): 100%
remaining activity at 1 µM [2]: 97%
remaining activity at 1 µM (CLK3): 95%
remaining activity at 1 µM [3]: 92%
remaining activity at 1 µM (NEK2): 95%
remaining activity at 1 µM [4]: 87%
remaining activity at 1 µM (DAPK3): 69%
remaining activity at 1 µM (TGFBR2): 94%
remaining activity at 1 µM (CDK9): 92%
remaining activity at 1 µM (MST4): 100%
remaining activity at 1 µM (MET(M1250T)): 84%
remaining activity at 1 µM (HIPK4): 87%
remaining activity at 1 µM (CDC2L2): 97%
remaining activity at 1 µM (GRK4): 100%
remaining activity at 1 µM [5]: 47%
remaining activity at 1 µM (PAK3): 79%
remaining activity at 1 µM (SLK): 71%
remaining activity at 1 µM (EPHB6): 100%
remaining activity at 1 µM (EPHA5): 74%
remaining activity at 1 µM (MAP3K15): 100%
remaining activity at 1 µM (MAP3K3): 85%
remaining activity at 1 µM (IKK-beta): 100%
remaining activity at 1 µM (CAMK1G): 84%
remaining activity at 1 µM (PIP5K2B): 81%
remaining activity at 1 µM (OSR1): 100%
remaining activity at 1 µM (BLK): 68%
remaining activity at 1 µM (EPHB1): 72%
Compound: Cc1cn(-c2cc(NC(=O)c3ccc4c(c3)CN(c3cncnc3)C[C@@H]4C)cc(C(F)(F)F)c2)cn1 [Compound 6j]

— article PMC5053573, “Structure-Based Design of Tetrahydroisoquinoline-7-carboxamides as Selective Discoidin Domain Receptor 1 (DDR1) Inhibitors” (Journal of Medicinal Chemistry, 2016)
